# Data published in patent publication US10759783B2, “Biaryl inhibitors of Bruton'S tyrosine kinase” (BIOGEN MA INC., priority 2013, dated 2020).
# Experiments:
# BTK enzyme = target: T1, BTK enzyme (Homo sapiens, UniProt Q06187); assay: In vitro BTK kinase assay: BTK-POLYGAT-LS assay; assay type: biochemical; conditions: ATP 10 μM, read-out: IC50 (10uMATP)
# T1 construct: purchased Upstate 14-552
# Summary of the method: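 Human BTK activity was measured with final 10 μM ATP and 100 nM polyGAT substrate in pH 7.5 Tris buffer with 10 mM MgCl2, DTT, Triton X-100 and casein.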
# [1] = target: BTK (phospho-BTK) in human whole blood (Homo sapiens, UniProt Q06187); assay: In vitro PD assay in human whole blood (pBTK assay)
# Chain of BTK (phospho-BTK) in human whole blood (Q06187 whole entry): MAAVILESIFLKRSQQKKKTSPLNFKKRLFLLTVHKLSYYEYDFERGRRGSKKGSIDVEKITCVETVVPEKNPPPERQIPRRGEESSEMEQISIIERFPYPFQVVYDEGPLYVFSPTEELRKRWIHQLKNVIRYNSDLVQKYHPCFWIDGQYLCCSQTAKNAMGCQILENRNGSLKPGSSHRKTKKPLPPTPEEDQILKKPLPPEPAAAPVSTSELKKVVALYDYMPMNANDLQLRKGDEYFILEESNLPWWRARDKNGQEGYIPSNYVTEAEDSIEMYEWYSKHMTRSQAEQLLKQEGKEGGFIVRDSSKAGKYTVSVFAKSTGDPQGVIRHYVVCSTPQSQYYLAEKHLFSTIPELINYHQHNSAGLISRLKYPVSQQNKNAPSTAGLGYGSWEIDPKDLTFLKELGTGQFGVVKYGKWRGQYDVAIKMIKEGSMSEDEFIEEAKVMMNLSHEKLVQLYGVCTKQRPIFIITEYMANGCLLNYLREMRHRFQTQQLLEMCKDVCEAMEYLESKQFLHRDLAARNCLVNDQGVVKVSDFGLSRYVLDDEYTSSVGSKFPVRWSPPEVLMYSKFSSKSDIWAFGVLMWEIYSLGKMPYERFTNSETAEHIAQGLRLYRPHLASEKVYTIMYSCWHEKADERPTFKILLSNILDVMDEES
# T1 sequence (Q06187 whole entry): as above
SMILES,IC50 (BTK enzyme),IC50 [1]
"Cc1cc(-c2ccnc(Nc3cn[nH]c3)n2)ccc1CNC(=O)c1cnc(C(C)(C)C)s1 [Example I-36, N-(4-(2-((1H-pyrazol-4-yl)amino)pyrimidin-4-yl)-2-methylbenzyl)-2-(tert-butyl)thiazole-5-carboxamide]",< 0.01 µM,< 0.5 µM
"Cc1cc(-c2ccnc(Nc3cnn(CCO)c3)n2)ccc1CNC(=O)c1cnc(C(C)(C)C)s1 [Example I-37, 2-(tert-butyl)-N-(4-(2-((1-(2-hydroxyethyl)-1H-pyrazol-4-yl)amino)pyrimidin-4-yl)-2-methylbenzyl)thiazole-5-carboxamide]",< 0.01 µM,< 0.5 µM
"Cc1cc(-c2ccnc(Nc3cnn(C4CCOCC4)c3)n2)ccc1CNC(=O)c1cnc(C(C)(C)C)s1 [Example I-38, 2-(tert-butyl)-N-(2-methyl-4-(2-((1-(tetrahydro-2H-pyran-4-yl)-1H-pyrazol-4-yl)amino)pyrimidin-4-yl)benzyl)thiazole-5-carboxamide]",< 0.01 µM,0.5 to 1.5 µM
"COCCn1cc(Nc2nccc(-c3ccc(CNC(=O)c4cnc(C(C)(C)C)s4)c(C)c3)n2)cn1 [Example I-39, 2-(tert-butyl)-N-(4-(2-((1-(2-methoxyethyl)-1H-pyrazol-4-yl)amino)pyrimidin-4-yl)-2-methylbenzyl)thiazole-5-carboxamide]",< 0.01 µM,< 0.5 µM
"CCn1cc(Nc2nccc(-c3ccc(CNC(=O)c4cnc(C(C)(C)C)s4)c(C)c3)n2)cn1 [Example I-40, 2-(tert-butyl)-N-(4-(2-((1-ethyl-1H-pyrazol-4-yl)amino)pyrimidin-4-yl)-2-methylbenzyl)thiazole-5-carboxamide]",< 0.01 µM,< 0.5 µM
"Cc1cc(-c2ccnc(Nc3cnn(C(C)C)c3)n2)ccc1CNC(=O)c1cnc(C(C)(C)C)s1 [Example I-41, 2-(tert-butyl)-N-(4-(2-((1-isopropyl-1H-pyrazol-4-yl)amino)pyrimidin-4-yl)-2-methylbenzyl)thiazole-5-carboxamide]",< 0.01 µM,< 0.5 µM
"Cc1cc(-c2ccnc(Nc3cnn(C4CNC4)c3)n2)ccc1CNC(=O)c1cnc(C(C)(C)C)s1 [Example I-42, N-(4-(2-((1-(azetidin-3-yl)-1H-pyrazol-4-yl)amino)pyrimidin-4-yl)-2-methylbenzyl)-2-(tert-butyl)thiazole-5-carboxamide]",< 0.01 µM,< 0.5 µM
"Cc1cc(-c2ccnc(Nc3cnn(C4CN(C)C4)c3)n2)ccc1CNC(=O)c1cnc(C(C)(C)C)s1 [Example I-43, 2-(tert-butyl)-N-(2-methyl-4-(2-((1-(1-methylazetidin-3-yl)-1H-pyrazol-4-yl)amino)pyrimidin-4-yl)benzyl)thiazole-5-carboxamide]",< 0.01 µM,< 0.5 µM
"Cc1cc(-c2ccnc(Nc3cnn(C4CC(C(=O)O)C4)c3)n2)ccc1CNC(=O)c1cnc(C(C)(C)C)s1 (centres unmarked) [Example I-44, 3-(4-((4-(4-((2-(tert-butyl)thiazole-5-carboxamido)methyl)-3-methylphenyl)pyrimidin-2-yl)amino)-1H-pyrazol-1-yl)cyclobutanecarboxylic acid]",< 0.01 µM,< 0.5 µM
"Cc1cc(-c2ccnc(Nc3cnn(C4CCNCC4)c3)n2)ccc1CNC(=O)c1cnc(C(C)(C)C)s1 [Example I-45, 2-(tert-butyl)-N-(2-methyl-4-(2-((1-(piperidin-4-yl)-1H-pyrazol-4-yl)amino)pyrimidin-4-yl)benzyl)thiazole-5-carboxamide]",< 0.01 µM,< 0.5 µM
"Cc1cc(-c2ccnc(Nc3cnn(C4CCN(C)CC4)c3)n2)ccc1CNC(=O)c1cnc(C(C)(C)C)s1 [Example I-46, 2-(tert-butyl)-N-(2-methyl-4-(2-((1-(1-methylpiperidin-4-yl)-1H-pyrazol-4-yl)amino)pyrimidin-4-yl)benzyl)thiazole-5-carboxamide]",< 0.01 µM,< 0.5 µM
"Cc1cc(-c2ccnc(Nc3cnn(C4CCN(S(C)(=O)=O)CC4)c3)n2)ccc1CNC(=O)c1cnc(C(C)(C)C)s1 [Example I-47, 2-(tert-butyl)-N-(2-methyl-4-(2-((1-(1-(methylsulfonyl)piperidin-4-yl)-1H-pyrazol-4-yl)amino)pyrimidin-4-yl)benzyl)thiazole-5-carboxamide]",< 0.01 µM,0.5 to 1.5 µM
"Cc1cc(-c2ccnc(Nc3cnn([C@H]4CC[C@@H](C(=O)O)CC4)c3)n2)ccc1CNC(=O)c1cnc(C(C)(C)C)s1 [Example I-48, cis-4-(4-((4-(4-((2-(tert-butyl)thiazole-5-carboxamido)methyl)-3-methylphenyl)pyrimidin-2-yl)amino)-1H-pyrazol-1-yl)cyclohexanecarboxylic acid]",< 0.01 µM,< 0.5 µM
"Cc1cc(-c2ccnc(Nc3cnn([C@H]4CC[C@H](C(=O)O)CC4)c3)n2)ccc1CNC(=O)c1cnc(C(C)(C)C)s1 [Example I-49, trans-4-(4-((4-(4-((2-(tert-butyl)thiazole-5-carboxamido)methyl)-3-methylphenyl)pyrimidin-2-yl)amino)-1H-pyrazol-1-yl)cyclohexanecarboxylic acid]",< 0.01 µM,< 0.5 µM
"Cc1cc(-c2ccnc(Nc3cnn(CCN)c3)n2)ccc1CNC(=O)c1cnc(C(C)(C)C)s1 [Example I-50, N-(4-(2-((1-(2-aminoethyl)-1H-pyrazol-4-yl)amino)pyrimidin-4-yl)-2-methylbenzyl)-2-(tert-butyl)thiazole-5-carboxamide]",< 0.01 µM,< 0.5 µM
"Cc1cc(-c2ccnc(Nc3cn(C)nc3C)n2)ccc1CNC(=O)c1cnc(C(C)(C)C)s1 [Example I-51, 2-(tert-butyl)-N-(4-(2-((1,3-dimethyl-1H-pyrazol-4-yl)amino)pyrimidin-4-yl)-2-methylbenzyl)thiazole-5-carboxamide]",< 0.01 µM,0.5 to 1.5 µM
"Cc1cc(-c2ccnc(Nc3cnn(C)c3C)n2)ccc1CNC(=O)c1cnc(C(C)(C)C)s1 [Example I-52, 2-(tert-butyl)-N-(4-(2-((1,5-dimethyl-1H-pyrazol-4-yl)amino)pyrimidin-4-yl)-2-methylbenzyl)thiazole-5-carboxamide]",< 0.01 µM,< 0.5 µM
"Cc1cc(-c2ccnc(Nc3cc4n(n3)CCNC4)n2)ccc1CNC(=O)c1cnc(C(C)(C)C)s1 [Example I-54, 2-(tert-butyl)-N-(2-methyl-4-(2-((4,5,6,7-tetrahydropyrazolo[1,5-a]pyrazin-2-yl)amino)pyrimidin-4-yl)benzyl)thiazole-5-carboxamide]",< 0.01 µM,0.5 to 1.5 µM
"Cc1cc(-c2ccnc(Nc3cc4n(n3)CCN(C)C4)n2)ccc1CNC(=O)c1cnc(C(C)(C)C)s1 [Example I-55, 2-(tert-butyl)-N-(2-methyl-4-(2-((5-methyl-4,5,6,7-tetrahydropyrazolo[1,5-a]pyrazin-2-yl)amino)pyrimidin-4-yl)benzyl)thiazole-5-carboxamide]",< 0.01 µM,1.5 to 10 µM

# The remaining lines, values ahead:
IC50 (BTK enzyme),IC50 [1],SMILES
< 0.01 µM,0.5 to 1.5 µM,"CCN1CCn2nc(Nc3nccc(-c4ccc(CNC(=O)c5cnc(C(C)(C)C)s5)c(C)c4)n3)cc2C1 [Example I-56, 2-(tert-butyl)-N-(4-(2-((5-ethyl-4,5,6,7-tetrahydropyrazolo[1,5-a]pyrazin-2-yl)amino)pyrimidin-4-yl)-2-methylbenzyl)thiazole-5-carboxamide]"
< 0.01 µM,1.5 to 10 µM,"Cc1cc(-c2ccnc(Nc3ccc(N4CCN(C)CC4)cn3)n2)ccc1CNC(=O)c1cnc(C(C)(C)C)s1 [Example I-62, 2-(tert-butyl)-N-(2-methyl-4-(2-((5-(4-methylpiperazin-1-yl)pyridin-2-yl)amino)pyrimidin-4-yl)benzyl)thiazole-5-carboxamide]"
< 0.01 µM,< 0.5 µM,"Cc1cc(-c2cc(Nc3cc4n(n3)CCN(C)C4)ncn2)ccc1CNC(=O)c1cnc(C(C)(C)C)s1 [Example I-63, 2-(tert-butyl)-N-(2-methyl-4-(6-((5-methyl-4,5,6,7-tetrahydropyrazolo[1,5-a]pyrazin-2-yl)amino)pyrimidin-4-yl)benzyl)thiazole-5-carboxamide]"
< 0.01 µM,1.5 to 10 µM,"Cc1cc(-c2cc(Nc3cnn(C)c3)ncn2)ccc1CNC(=O)c1cnc(C(C)(C)C)s1 [Example I-64, 2-(tert-butyl)-N-(2-methyl-4-(6-((1-methyl-1H-pyrazol-4-yl)amino)pyrimidin-4-yl)benzyl)thiazole-5-carboxamide]"
< 0.01 µM,0.5 to 1.5 µM,"Cc1cc(-c2cc(Nc3cn(C)cn3)ncn2)ccc1CNC(=O)c1cnc(C(C)(C)C)s1 [Example I-65, 2-(tert-butyl)-N-(2-methyl-4-(6-((1-methyl-1H-imidazol-4-yl)amino)pyrimidin-4-yl)benzyl)thiazole-5-carboxamide]"
< 0.01 µM,0.5 to 1.5 µM,"Cc1cc(-c2cc(Nc3ccn(C)n3)ncn2)ccc1CNC(=O)c1cnc(C(C)(C)C)s1 [Example I-66, 2-(tert-butyl)-N-(2-methyl-4-(6-((1-methyl-1H-pyrazol-3-yl)amino)pyrimidin-4-yl)benzyl)thiazole-5-carboxamide]"
< 0.01 µM,0.5 to 1.5 µM,"Cc1cc(-c2cc(Nc3cnn(C)n3)ncn2)ccc1CNC(=O)c1cnc(C(C)(C)C)s1 [Example I-67, 2-(tert-butyl)-N-(2-methyl-4-(6-((2-methyl-2H-1,2,3-triazol-4-yl)amino)pyrimidin-4-yl)benzyl)thiazole-5-carboxamide]"
< 0.01 µM,< 0.5 µM,"Cc1cc(-c2cc(Nc3ccc(N4CCN(C)CC4)cn3)ncn2)ccc1CNC(=O)c1cnc(C(C)(C)C)s1 [Example I-69, 2-(tert-butyl)-N-(2-methyl-4-(6-((5-(4-methylpiperazin-1-yl)pyridin-2-yl)amino)pyrimidin-4-yl)benzyl)thiazole-5-carboxamide]"
< 0.01 µM,< 0.5 µM,"Cc1cc(-c2ccnc(Nc3ccc(N4CCN(C)CC4)cn3)c2)ccc1CNC(=O)c1cnc(C(C)(C)C)s1 [Example I-70, 2-(tert-butyl)-N-(2-methyl-4-(2-((5-(4-methylpiperazin-1-yl)pyridin-2-yl)amino)pyridin-4-yl)benzyl)thiazole-5-carboxamide]"
